In paper PMC9653258, “NDUFS3 knockout cancer cells and molecular docking reveal specificity and mode of action of anti-cancer respiratory complex I inhibitors” (Open Biology, 2022):
Read-outs that look alike come from different tables or passages of the source.

What was measured:
SKOV3 cells (NDUFS3^+/+) = assay: Cell proliferation, Incucyte live-imaging (confluence); format: cell-based, human
Protocol: (§1) Cell proliferation and morphology were assessed using the Incucyte Live-imaging System (Sartorius) and proliferation was quantified through time-lapse image acquisition and metrics application.
(§2) Briefly, 2.5 × 10^3 SKOV3/well, 2 × 10^3 HCT116/well and 1 × 10^3 B16-F10/well were seeded in 96-well plates in high-glucose DMEM and incubated overnight to allow cells attachment. For specificity assays, NDUFS3 wild-type and knockout cells were seeded simultaneously, and the same confluence mask was applied for subsequent analysis. […] Cell growth was evaluated by Incucyte system phase contrast software (confluence metrics), which provides an occupied area average (% of confluence) per image/per well. For data in electronic supplementary material, figures S1 and S2, the analysis was performed using % of confluence metric per scan normalized on treatment starting point (time 0). For data in figures 1 and 2, the percentage of cell confluence normalized on time 0 for each inhibitor's treatment was subsequently normalized to untreated control. At least three replicate experiments were performed for each treatment condition.

[1] = system: HCT116 cells (NDUFS3^+/+); assay: as above; format: cell-based, human
Protocol: as §1, §2

[2] = system: mitochondrial respiration of SKOV3, HCT116 and B16-F10 cells; assay: Microrespirometry (Seahorse XFe, OCR), stated across cell models; format: cell-based, human, murine
Protocol: (§3) Mitochondrial respiration was measured using the protocol described for the Seahorse XFe Cell Mito Stress Test Kit (Agilent #103015-100) following the manufacturer instructions. Briefly, 12 × 10^3 cells/well (SKOV3, HCT116) and 8 × 10^3 (B16-F10) were seeded in 80 µl of DMEM medium into XFe96 cell culture plates and incubated for 48 h (HCT116) and for 24 h (SKOV3, B16-F10) at 37°C and 5% CO2. Complete growth medium was replaced with 180 µl of XF medium (Agilent #103575-100) supplemented with 10 mM glucose, 1 mM sodium pyruvate, 2 mM L-glutamine, at pH 7.4. For temperature and pH equilibration, cells were incubated at 37°C for 30 min. Three oxygen consumption rate (OCR) baseline measurements were followed by injection of either vehicle or different concentrations of CI-inhibitors and subsequent measurements; 1 µM oligomycin, carbonyl cyanide-p-trifluoromethoxyphenylhydrazone (FCCP), 1 µM rotenone and 1 µM antimycin A were sequentially added to each well. FCCP concentrations were previously optimized by titration and were 0.5 µM for SKOV3, 0.75 µM for HCT116 and 1 µM for B16-F10, respectively. At the end of the assay, medium was removed and sulforhodamine B (SRB) assay was performed to determine protein content for normalization. Briefly, plates were incubated with 10% trichloroacetic acid (TCA) for 1 h at 4°C to fix the cells. Five washes in water were carried out. Once the plates were dry, proteins were stained by incubation with 0.4% SRB for 30 min at RT. SRB was solubilized with 10 mM Tris and absorbance at 560 nm was determined using a Victor2 plate reader (Perkin-Elmer). Data (pmol min^−1) were normalized to blank corrected SRB absorbance.

[3] = system: NDUFS3^+/+ and NDUFS3^−/− SKOV3, HCT116 and B16-F10 cells; assay: Specificity assay: proliferation of NDUFS3^+/+ versus NDUFS3^−/− cells, Incucyte; format: cell-based, human, murine; details: EVP 4593 100 nM (SKOV3, HCT116), 200 nM (B16-F10); BAY 87-2243 1 µM, 20 µM (B16-F10); IACS-010759 1 µM, 5 µM (B16-F10); 72 h
Protocol: as §1, §2

[4] = system: NDUFS3^−/− cells (SKOV3^−/−, HCT116^−/−, B16-F10^−/−); assay: Proliferation of CI-deficient cells, Incucyte (all three models); format: cell-based, human, murine; details: tested concentrations (up to 1 µM)
Source text: (§4) Human ovarian cancer cell line SKOV3 and murine melanoma cell line B16-F10 were purchased from ATCC (#HTB-77; #CRL-6475, Manassas, VA, USA). Human colorectal cancer cell line HCT116 was authenticated using […]dentifiler kit (Applied Biosystem #4322288) and its STR profile corresponded to the putative background. Mitochondrial DNA (mtDNA) was sequenced by Sanger sequencing as previously described, to ensure wild-type genotype. The results are available upon request. NDUFS3 knockout cells, referred as SKOV3^−/−, HCT116^−/− and B16-F10^−/−, were generated by genome editing as previously reported. Briefly, CRISPR/Cas9 system was used to introduce a frameshift mutation in NDUFS3 gene in SKOV3 human cell line and Ndufs3 gene in B16-F10 murine cell line, using exon 2 targeting guide […] and exon 3 targeting guide […], respectively. […]
as §1
(§5) Briefly, 2.5 × 10^3 SKOV3/well, 2 × 10^3 HCT116/well and 1 × 10^3 B16-F10/well were seeded in 96-well plates in high-glucose DMEM and incubated overnight to allow cells attachment. […] Cell growth was evaluated by Incucyte system phase contrast software (confluence metrics), which provides an occupied area average (% of confluence) per image/per well. […]

[5] = system: CI (respiratory complex I) in permeabilized SKOV3, HCT116 and B16-F10 cells; assay: Mitochondrial ATP synthesis rate, CI-driven, digitonin-permeabilized cells (luciferin/luciferase); format: cell-based, human, murine; details: optimized concentrations; all the investigated cell models
Protocol: The rate of mitochondrial ATP synthesis was measured in digitonin-permeabilized CI competent cells by using a luciferin/luciferase assay as previously described with minor modifications [47]. Chemiluminescence was determined as a function of time with a luminometer (Sirius L Tube, Titertek-Berthold, Pforzheim, Germany). After trypsinization, cells (10 × 10^6 ml^−1) were suspended in a buffer containing 150 mM KCl, 25 mM Tris–HCl, 2 mM EDTA (ethylenediaminetetraacetic acid), 0.1% bovine serum albumin, 10 mM potassium phosphate, 0.1 mM MgCl2, pH 7.4, kept at room temperature for 15 min, then incubated with 50 µg ml^−1 digitonin until 90–100% of cells were positive to Trypan Blue staining. Aliquots of 3 × 10^5 permeabilized cells were incubated in the same buffer in the presence of the adenylate kinase inhibitor P1,P5-di(adenosine-5′) pentaphosphate (0.1 mM, Sigma-Aldrich #A2754) and 10 µl of the luciferin/luciferase assay reagent (Sigma-Aldrich #FLAAM-5VL). Then, ATP synthesis rate was determined after the sequential addition of the following substrates and inhibitors. […] Then, CI inhibitors were added at the optimized concentrations that completely suppress maximal respiration previously determined by titration with Seahorse. […]

[6] = system: mitochondrial respiration of SKOV3 cells; assay: Microrespirometry (Seahorse XFe, oxygen consumption rate); format: cell-based, human; details: for IC50: Homo sapiens, read-out: IC50 (residual OCR, concentration-response)
Protocol: as §3

[7] = system: mitochondrial respiration of HCT116 cells; assay: as above; format: cell-based, human; details: for IC50: Homo sapiens, read-out: IC50 (residual OCR, concentration-response)
Protocol: as §3

[8] = system: mitochondrial respiration of B16-F10 cells; assay: as above; format: cell-based, murine; details: for IC50: Mus musculus
Protocol: as §3

[9] = system: SKOV3, HCT116 and B16-F10 cells; assay: Apoptotic cell death, Incucyte Caspase-3/7 green dye (all cell models); format: cell-based, human, murine; details: 72 h
Protocol: (§7) Cells (SKOV3, HCT116 and B16-F10) were seeded in a 96-wells plate in high glucose DMEM, as described above. Drugs were added after 24 h, in presence of 5 µM Incucyte Caspase-3/7 green dye following the manufacturer's protocol. Then, the plate was placed in Incucyte for 72 h and images (4/well) were captured at 10× magnification with 2 h intervals, both in phase contrast and fluorescent green channel. For each cell line, staurosporine (100 nM, Sigma-Aldrich #S4400) treatment was performed as a positive control. For each experimental condition, the masks for fluorescent objects identification were set by the Incucyte integrated analysis software. Total and green positive cells were counted at 10× magnification in three fields of view per condition, and data are expressed as percentage of apoptotic cells [(number of green cells/number of total cells) × 100].

[10] = system: B16-F10 cells (NDUFS3^+/+); assay: Cell proliferation, Incucyte live-imaging (confluence); format: cell-based, murine
Protocol: as §1, §2

HCT116 cells = assay: Apoptotic cell death, Incucyte Caspase-3/7 green dye; format: cell-based, human; details: 72 h
Protocol: as §7

[11] = system: SKOV3^−/− cells (NDUFS3 knockout); assay: Proliferation of CI-deficient cells, Incucyte; format: cell-based, human
Source text: (§6) Human ovarian cancer cell line SKOV3 and murine melanoma cell line B16-F10 were purchased from ATCC (#HTB-77; #CRL-6475, Manassas, VA, USA). Human colorectal cancer cell line HCT116 was authenticated using […]dentifiler kit (Applied Biosystem #4322288) and its STR profile corresponded to the putative background. Mitochondrial DNA (mtDNA) was sequenced by Sanger sequencing as previously described, to ensure wild-type genotype. The results are available upon request. NDUFS3 knockout cells, referred as SKOV3^−/−, HCT116^−/− and B16-F10^−/−, were generated by genome editing as previously reported. Briefly, CRISPR/Cas9 system was used to introduce a frameshift mutation in NDUFS3 gene in SKOV3 human cell line and Ndufs3 gene in B16-F10 murine cell line, using exon 2 targeting guide […] and exon 3 targeting guide […], respectively. Instead, zinc finger endonuclease system was used to obtain HCT116 NDUFS3 knockout. Plasmids containing cDNA of NDUFS3-targeted zinc finger endonucleases (Sigma-Aldrich #CKOZFND15186) were purified and transcribed in vitro. The pool of zinc finger endonucleases mRNAs was transfected into 70% confluent HCT116 cells. The resulting heterozygous clones were subjected to a subsequent second transfection with NDUFS3 zinc finger pool and led to the selection of homozygous frameshift NDUFS3 mutants.
as §1, §2

[12] = system: HCT116^−/− cells (NDUFS3 knockout); assay: Proliferation of CI-deficient cells, Incucyte; format: cell-based, human
Source text: as §6, §1, §2

SKOV3 cells = assay: Apoptotic cell death, Incucyte Caspase-3/7 green dye; format: cell-based, human; details: 72 h
Protocol: as §7

[13] = system: B16-F10^−/− cells (NDUFS3 knockout); assay: Proliferation of CI-deficient cells, Incucyte; format: cell-based, murine
Source text: as §4, §1, §5

[14] = 1 µM (highest concentration applied)
[15] = range over SKOV3, HCT116, B16-F10, read-out: IC50 of mitochondrial respiration (range over cell lines)
[16] = B16-F10, figure 4a, read-out: IC50 (residual OCR, concentration-response)
[17] = metformin, dose-dependent over the tested concentrations

## Cc1cc(-c2nc(-c3ccc(OC(F)(F)F)cc3)no2)nn1Cc1ccnc(N2CCN(C3CC3)CC2)c1 [BAY 87-2243, 1-cyclopropyl-4-(4-[(5-methyl-3-{3-[4-(trifluoromethoxy)phenyl]-1,2,4-oxadiazol-5-yl)-1H-pyrazol-1-yl)methyl]pyridin-2-yl) piperazine]
SKOV3 cells (NDUFS3^+/+); [14]
  reduction of cell growth after 72 h treatment: 38%
[1]; [14]
  reduction of cell growth after 72 h treatment: 20%
[2]; human models (SKOV3, HCT116), read-out: IC50 (mitochondrial respiration)
  IC50: 0.115 to 0.171 µM
[2]; [15]
  IC50: 0.12 to 7 µM
[3]
  effect on cell proliferation at optimized concentrations, NDUFS3^+/+ versus CI-defective counterparts: reduced cell proliferation of NDUFS3^+/+ cells only
[4]
  effect on CI-deficient cancer cell growth: unaffected
[5]
  effect on CI-driven ATP synthesis: strongly inhibit
[6]
  lowest concentration that completely inhibited mitochondrial respiration (abolished OCR): 1 µM
[6]; SK-OV-3, figure 4a
  IC50: 0.115 µM
[7]
  lowest concentration that completely inhibited mitochondrial respiration (abolished OCR): 1 µM
[7]; HCT-116, figure 4a
  IC50: 0.172 µM
[8]; B16-F10
  concentration required to suppress maximal OCR (abolished OCR): 20 µM
[8]; [16]
  IC50: 7.04 µM
[8]; murine B16-F10 cells, read-out: IC50 (mitochondrial respiration)
  IC50: 7 µM
[8]; ratio of IC50, B16-F10 versus human models
  fold less efficient in murine B16-F10 cells compared to human models: 50 fold
[9]; tested BAY 87-2243 concentrations
  apoptosis (percentage of cells): very low percentage of cells
[10]; [14]
  reduction of cell growth after 72 h treatment: 28%

## Nc1ccc2ncnc(NCCc3ccc(Oc4ccccc4)cc3)c2c1 [EVP 4593, N4-[2-(4-phenoxyphenyl)ethyl]-4,6-quinazolinediamine]
SKOV3 cells (NDUFS3^+/+); 2.5–20 µM
  decrease in cell proliferation after 72 h: 49–62%
[1]; 2.5–20 µM
  decrease in cell proliferation after 72 h: 52–74%
HCT116 cells; 20 µM
  apoptotic cell death: 77.6%
[2]; in our models (SKOV3, HCT116, B16-F10)
  concentration range completely suppressing mitochondrial respiration: 100 to 200 nM
[2]; [15]
  IC50: 0.011 to 0.03 µM
[11]; SKOV3 NDUFS3^−/−
  concentration causing reduction of NDUFS3^−/− cell growth: 20 µM
[12]; HCT116 NDUFS3^−/−
  concentration causing reduction of NDUFS3^−/− cell growth: 10 to 20 µM
[3]
  effect on cell proliferation at optimized concentrations, NDUFS3^+/+ versus CI-defective counterparts: reduced cell proliferation of NDUFS3^+/+ cells only
[5]
  effect on CI-driven ATP synthesis: strongly inhibit
[6]
  lowest concentration able to fully curb mitochondrial respiration: 100 nM
[6]; SK-OV-3, figure 4a
  IC50: 0.0111 µM
[7]
  lowest concentration able to fully curb mitochondrial respiration: 100 nM
[7]; HCT-116, figure 4a
  IC50: 0.013 µM
SKOV3 cells; 20 µM
  apoptotic cell death: 24.6%
[8]; B16-F10
  lowest concentration able to fully curb mitochondrial respiration: 200 nM
[8]; [16]
  IC50: 0.0299 µM
[13]; B16-F10 NDUFS3^−/−
  concentration causing reduction of NDUFS3^−/− cell growth: 20 µM
[9]; 2.5 µM
  apoptotic cell death: modest percentage of dead cells
[9]; optimized concentration (100 nM SKOV3 and HCT116, 200 nM B16-F10)
  massive apoptotic cell death: not detected
[10]; 2.5–20 µM
  decrease in cell proliferation after 72 h: 66–84%

## Cc1nc(-c2nc(-c3ccc(OC(F)(F)F)cc3)no2)nn1Cc1cccc(N2CCC(S(C)(=O)=O)CC2)c1 [IACS-010759]
[3]
  effect on cell proliferation at optimized concentrations, NDUFS3^+/+ versus CI-defective counterparts: reduced cell proliferation of NDUFS3^+/+ cells only
[6]
  lowest concentration that completely inhibited mitochondrial respiration (abolished OCR): 1 µM
[7]
  lowest concentration that completely inhibited mitochondrial respiration (abolished OCR): 1 µM
[8]; B16-F10
  concentration required to suppress maximal OCR (abolished OCR): 5 µM

## CN(C)C(=N)NC(=N)N.Cl [metformin, 1,1-dimethylbiguanide hydrochloride]
SKOV3 cells (NDUFS3^+/+); [17]
  reduction of cell growth after 72 h: 58–90%
[1]; [17]
  reduction of cell growth after 72 h: 46–77%
HCT116 cells; 2.5 mM
  apoptotic cell death: comparable to the untreated control
[2]; acute injection, only at the highest concentration (50 mM), independently from the cell model
  decrease of basal respiration (OCR): 25–35%
[2]; cells pre-incubated (24 h)
  concentration abolishing maximal respiration: 50 mM
[2]; range over SKOV3, HCT116, B16-F10, 24 h pre-incubation, read-out: IC50 of mitochondrial respiration (range over cell lines)
  IC50: 225 to 1340 µM
[11]; metformin, SKOV3^−/−
  concentrations at which NDUFS3^−/− cell growth was reduced (CI-independent antiproliferative effect): all the tested concentrations
[12]; metformin, HCT116^−/−
  concentrations at which NDUFS3^−/− cell growth was reduced (CI-independent antiproliferative effect): all the tested concentrations
[6]; SK-OV-3, pre-incubated 24 h before OCR measurement, figure 4a
  IC50: 554 µM
[6]; pre-incubation for 24 h
  concentration abolishing basal OCR: 2 mM
[7]; HCT-116, pre-incubated 24 h before OCR measurement, figure 4a
  IC50: 225 µM
[7]; pre-incubation for 24 h
  concentration abolishing basal OCR: 2 mM
SKOV3 cells; 2.5 mM
  apoptotic cell death (portion of the cells): 2.8%
[8]; B16-F10, pre-incubated 24 h before OCR measurement, figure 4a, read-out: IC50 (residual OCR, concentration-response)
  IC50: 1340 µM
[8]; pre-incubation for 24 h, B16-F10
  concentration abolishing basal OCR: 10 mM
[13]; metformin, B16-F10^−/−, only at high concentrations
  concentrations at which NDUFS3^−/− cell proliferation was reduced (CI-independent antiproliferative effect): 10 to 20 mM
[10]; [17]
  reduction of cell growth after 72 h: 24–62%
